Assay results published in PMC6689975, “Novel Cell Wall Antifungals Reveal a Special Synergistic Activity in pbr1 Mutants Resistant to the Glucan Synthesis Antifungals Papulacandins and Echinocandins” (Frontiers in Microbiology, 2019).

Key:
Assay in all cases: microbe, parasite or virus in culture
C. albicans wild-type = tested on: C. albicans wild-type; set-up: species or system whole yeast cells; macro tube broth dilution MIC in YEPD at 30 C, visual clearness of medium; details: Candida albicans, 48 h, YEPD medium
[1] = tested on: Candida albicans C. a.^f (Table 4); set-up: species or system yeast; tube dilution MIC in YEPD (± 1.2 M sorbitol), complete growth inhibition by turbidity; details: 48 h, YEPD + 1.2 M sorbitol
Method: (§1) Standard YEPD (Yeast Extract, Peptone, Dextrose) ([Sherman, 1990]), YEPD+S (YEPD with 1.2M sorbitol), YES (Yeast Extract, Dextrose and Supplements of Adenine, Histidine, Leucine, Uracil and Lysine) ([Alfa et al., 1993]) and YES+S (YES with 1.2 M sorbitol) ([Ribas et al., 1991]; [Ishiguro et al., 1997]), media were used for determination of MIC values of the tested compounds. A stock solution of 10 mg/ml of each tested compounds was prepared in DMSO and serial dilutions in DMSO were prepared. The final concentration of DMSO was 2% in the YEPD medium. […] The serial dilutions of compounds were dispensed into test tubes with 1 ml of YEPD or YEPD+S to make final concentrations of 200, 100, 50, 25, 12.5, 6.26, 3.125, 1.6, 0.8 and 0.4 μg/ml. The tested yeast strains were previously grown in YEPD, YEPD+S, YES or YES+S agar plates at 30°C for 48 h. For inoculation of YEPD or YEPD+S macro test tubes a suspension of tested fungus was produced with 10^5 cfu/ml (cfu - colony forming unit). 10 μl of suspension was used for inoculation of each tube. After 48 h incubation at 30°C the tubes were checked. The MIC value is the lowest concentration of the tested compound that could inhibit the fungal growth and the medium remained clear. From each tube 10 μl culture was plated on YEPD agar medium to check the contamination. The MIC tests were carried out in three parallels. Micro-culture assays of large numbers of samples were analyzed as described) ([Martins et al., 2011]). Essentially early log-phase cells were grown in YEPD, YEPD+S, YES or YES+S (1.2 M sorbitol) medium at 30°C, and diluted to cell density of 4 X 10^6 cells/ml in YEPD, YEPD+S, YES or YES+S medium and aliquots of 100 μl were dispensed into each small test tube (3 ml test tube size). Then, another 100 μl of YEPD, YEPD+S, YES or YES+S with the corresponding dilution of each compound at 2X concentration (4% DMSO) was added. The final volume was 200 μl, with the cells diluted to of 2 X 10^6 cells/ml and each compound diluted to 1X final concentration, containing increasing concentrations of antifungal (0, 1, 2, 5, 10, 20, 50, 100 and 200 μg/ml) or an equivalent volume of solvent (2% DMSO). The cells were grown at 30°C in an orbital roller and turbidity was analyzed after 24 and 48 h of incubation. The MIC was determined as the minimal concentration of tested compound that produced complete cell growth inhibition and kept the medium clear. The MIC values were calculated from at least three independent experiments.

[2] = tested on: Candida albicans C. a.^g (Table 4); set-up: species or system yeast; tube dilution MIC in YEPD (± 1.2 M sorbitol), complete growth inhibition by turbidity; details: 48 h, YEPD + 1.2 M sorbitol
Method: as §1

[3] = tested on: Candida albicans C. a.^h (Table 4); set-up: species or system yeast; tube dilution MIC in YEPD (± 1.2 M sorbitol), complete growth inhibition by turbidity; details: 48 h, YEPD + 1.2 M sorbitol
Method: as §1

[4] = tested on: T1, Saccharomyces cerevisiae S. c.^d (wild-type CVX12-3A); set-up: species or system yeast; tube dilution MIC in YEPD (± 1.2 M sorbitol), complete growth inhibition by turbidity; details: 48 h, YEPD + 1.2 M sorbitol
T1 construct: CVX12-3A
Method: as §1

[5] = tested on: T2, Schizosaccharomyces pombe S. p.^a (wild-type 972 h-); set-up: species or system yeast; tube dilution MIC in YEPD (± 1.2 M sorbitol), complete growth inhibition by turbidity; details: 48 h, YEPD + 1.2 M sorbitol
T2 construct: 972 h-
Method: as §1

Compound | MIC (C. albicans wild-type; C. albicans strain f) | MIC (C. albicans wild-type; C. albicans strain g) | MIC (C. albicans wild-type; C. albicans strain h) | MIC [1] | MIC [2] | MIC [3] | MIC [4] | MIC [5]
O=c1oc2ccc3ccccc3c2cc1-c1ccccc1CO [compound 12] | > 200 µg/mL | > 200 µg/mL | > 200 µg/mL | 100 µg/mL | 200 µg/mL | 100 µg/mL | 50 µg/mL | 50 µg/mL
O=c1oc2ccccc2cc1-c1ccccc1CO [compound 15] | > 100 µg/mL | > 100 µg/mL | > 100 µg/mL | 25 µg/mL | > 200 µg/mL | > 200 µg/mL | 100 µg/mL | 200 µg/mL
